Experimental data from the NIST ThermoML archive (doi:10.1021/je7000232).

Legend:
[1] = excess molar enthalpy (molar enthalpy of mixing); xn = mol fraction of the nth substance listed; details: 101 kPa, Liquid
[2] = xn = mol fraction of the nth substance listed; details: 293.15 K, 101 kPa, Liquid, Capillary tube (Ostwald / Ubbelohde) method
[3] = Liquid, Closed cell (Static) method

CC(O)C(=O)[O-].C[N+](C)(C)CCO [choline lactate] + O
[1]
Details | excess molar enthalpy [kcal/mol]
303.15 K, x2 = 0.1585 | -0.938
303.15 K, x2 = 0.2269 | -1.51
303.15 K, x2 = 0.3051 | -2.04
303.15 K, x2 = 0.3528 | -2.4
303.15 K, x2 = 0.4853 | -3.35
303.15 K, x2 = 0.671 | -4.12
303.15 K, x2 = 0.8719 | -4.37
303.15 K, x2 = 0.9078 | -3.55
303.15 K, x2 = 0.9751 | -1.87
303.15 K, x2 = 0.9878 | -0.604
313.15 K, x2 = 0.1687 | -0.723
313.15 K, x2 = 0.2123 | -1.1
313.15 K, x2 = 0.3065 | -1.57
313.15 K, x2 = 0.3943 | -2.11
313.15 K, x2 = 0.5019 | -2.6
313.15 K, x2 = 0.603 | -2.9
313.15 K, x2 = 0.738 | -3.3
313.15 K, x2 = 0.8794 | -3.48
313.15 K, x2 = 0.9535 | -2.47
313.15 K, x2 = 0.9769 | -1.55
323.15 K, x2 = 0.16 | -0.368
323.15 K, x2 = 0.2662 | -0.649
323.15 K, x2 = 0.331 | -0.856
323.15 K, x2 = 0.5059 | -1.55
323.15 K, x2 = 0.6257 | -2.15
323.15 K, x2 = 0.7785 | -2.6
323.15 K, x2 = 0.8805 | -2.09
323.15 K, x2 = 0.9555 | -1.1
323.15 K, x2 = 0.9884 | -0.239

[2]
Details | viscosity [mPa·s]
x2 = 0.0272 | 5850
x2 = 0.382 | 940
x2 = 0.546 | 336
x2 = 0.731 | 75
x2 = 0.878 | 12.5
x2 = 0.915 | 6.5
x2 = 0.941 | 3.9

O [water]
[3]
Details | vapor or sublimation pressure [kPa]
303.15 K | 4.24
313.15 K | 7.38
323.15 K | 12.34
